# Tests used:
# Experiment in all cases: relative viability (nuclei count vs DMSO), 5 days (fraction); higher = more cells survive
# [1] = compound: Cn1cc(-c2cnn3c(N)c(Br)c([C@@H]4CCCNC4)nc23)cn1
# In short: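 Following overnight incubation at 37 °C, lung cancer cell lines in 1536-well plates were pinned with five library-drug doses (not always all listed) in √10 steps on vehicle-anchored plates. The cells then spent 5 days without medium change before a combined fix, permeabilisation and Hoechst stain, 4× imaging and MetaXpress nuclear counts. Viability is the treated-to-vehicle ratio of nuclei, taken as the median across plates. Only plates with control CV below 25% and at least one doubling passed.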
# [2] = compound: Cn1cc(-c2cnn3c(N)c(Br)c([C@@H]4CCCNC4)nc23)cn1 + CC(=O)Nc1cccc(-n2c(=O)n(C3CC3)c(=O)c3c(Nc4ccc(I)cc4F)n(C)c(=O)c(C)c32)c1 [Trametinib] (partner 0.02 µM)
# In short: (§1)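 Lung cancer cell lines in 1536-well plates got either a single drug or a fixed anchor-drug dose together with five library-drug doses (not always all listed) in √10 steps, by pin tool, on the day after seeding. Nuclei were counted after 5 days, and relative viability is the treated-to-vehicle ratio of nuclei counts. Values are medians of duplicate plates.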
# [3] = compound: Cn1cc(-c2cnn3c(N)c(Br)c([C@@H]4CCCNC4)nc23)cn1 + CC(=O)c1c(C)c2cnc(Nc3ccc(N4CCNCC4)cn3)nc2n(C2CCCC2)c1=O [Palbociclib] (partner 0.5 µM)
# In short: as §1
# [4] = compound: Cn1cc(-c2cnn3c(N)c(Br)c([C@@H]4CCCNC4)nc23)cn1 + CCNC(=O)c1noc(-c2cc(C(C)C)c(O)cc2O)c1-c1ccc(CN2CCOCC2)cc1 [Luminespib] (partner 0.01 µM)
# In short: as §1
# [5] = compound: Cn1cc(-c2cnn3c(N)c(Br)c([C@@H]4CCCNC4)nc23)cn1 + COc1cc2c(Oc3ccc(NC(=O)C4(C(=O)Nc5ccc(F)cc5)CC4)cc3F)ccnc2cc1OCCCN1CCOCC1 [Foretinib] (partner 0.25 µM)
# In short: as §1
# [6] = compound: Cn1cc(-c2cnn3c(N)c(Br)c([C@@H]4CCCNC4)nc23)cn1 + COc1cccc2cc(-c3nc([C@H]4CC[C@H](C(=O)O)CC4)n4ncnc(N)c34)[nH]c12 [OSI-027] (partner 0.5 µM)
# In short: as §1
# [7] = compound: Cn1cc(-c2cnn3c(N)c(Br)c([C@@H]4CCCNC4)nc23)cn1 + Cc1cc(Nc2cc(N3CCN(C)CC3)nc(Sc3ccc(NC(=O)C4CC4)cc3)n2)n[nH]1 [Tozasertib] (partner 0.1 µM)
# In short: as §1
# [8] = compound: Cn1cc(-c2cnn3c(N)c(Br)c([C@@H]4CCCNC4)nc23)cn1 + Cc1nc(Nc2ncc(C(=O)Nc3c(C)cccc3Cl)s2)cc(N2CCN(CCO)CC2)n1 [Dasatinib] (partner 0.075 µM)
# In short: as §1
# [9] = compound: Cn1cc(-c2cnn3c(N)c(Br)c([C@@H]4CCCNC4)nc23)cn1 + N=C(N)NC(=N)NCCc1ccccc1 [Phenformin] (partner 250 µM)
# In short: as §1
# [10] = compound: Cn1cc(-c2cnn3c(N)c(Br)c([C@@H]4CCCNC4)nc23)cn1 + NC(=O)Nc1cc(-c2cccc(F)c2)sc1C(=O)N[C@H]1CCCNC1 [AZD7762] (partner 0.2 µM)
# In short: as §1
# [11] = compound: Cn1cc(-c2cnn3c(N)c(Br)c([C@@H]4CCCNC4)nc23)cn1 + Nc1nc2[nH]cc(CCc3ccc(C(=O)N[C@@H](CCC(=O)O)C(=O)O)cc3)c2c(=O)[nH]1 [Pemetrexed] (partner 0.2 µM)
# In short: as §1
# [12] = compound: Cn1cc(-c2cnn3c(N)c(Br)c([C@@H]4CCCNC4)nc23)cn1 + Nc1ncn([C@H]2C[C@H](O)[C@@H](CO)O2)c(=O)n1 [Decitabine] (partner 2 µM)
# In short: as §1
# [13] = compound: Cn1cc(-c2cnn3c(N)c(Br)c([C@@H]4CCCNC4)nc23)cn1 + O=C(CCCCCCC(=O)Nc1ccccc1)NO [Vorinostat] (partner 1 µM)
# In short: as §1
# [14] = compound: Cn1cc(-c2cnn3c(N)c(Br)c([C@@H]4CCCNC4)nc23)cn1 + O=C(c1cc(Cc2n[nH]c(=O)c3ccccc23)ccc1F)N1CCN(C(=O)C2CC2)CC1 [Olaparib] (partner 8 µM)
# In short: as §1
cell line,measurement,setting,value
SW 900,relative viability,[1]; 0.05 µM,0.87
same,relative viability,[1]; 0.1581 µM,0.881
same,relative viability,[1]; 0.5 µM,1
same,relative viability,[1]; 1.581 µM,0.669
same,relative viability,[1]; 5 µM,0.309
same,relative viability,[2]; first compound 0.05 µM,0.772
same,relative viability,[2]; first compound 0.1581 µM,0.746
same,relative viability,[2]; first compound 0.5 µM,0.946
same,relative viability,[2]; first compound 1.581 µM,0.753
same,relative viability,[2]; first compound 5 µM,0.816
same,relative viability,[3]; first compound 0.05 µM,0.53
same,relative viability,[3]; first compound 0.1581 µM,0.527
same,relative viability,[3]; first compound 0.5 µM,0.535
same,relative viability,[3]; first compound 1.581 µM,0.444
same,relative viability,[3]; first compound 5 µM,0.529
same,relative viability,[4]; first compound 0.05 µM,0.184
same,relative viability,[4]; first compound 0.1581 µM,0.176
same,relative viability,[4]; first compound 0.5 µM,0.188
same,relative viability,[4]; first compound 1.581 µM,0.189
same,relative viability,[4]; first compound 5 µM,0.165
same,relative viability,[5]; first compound 0.05 µM,0.828
same,relative viability,[5]; first compound 0.1581 µM,0.817
same,relative viability,[5]; first compound 0.5 µM,0.78
same,relative viability,[5]; first compound 1.581 µM,0.768
same,relative viability,[5]; first compound 5 µM,0.39
same,relative viability,[6]; first compound 0.05 µM,0.597
same,relative viability,[6]; first compound 0.1581 µM,0.612
same,relative viability,[6]; first compound 0.5 µM,0.541
same,relative viability,[6]; first compound 1.581 µM,0.453
same,relative viability,[6]; first compound 5 µM,0.26
same,relative viability,[7]; first compound 0.05 µM,0.59
same,relative viability,[7]; first compound 0.1581 µM,0.66
same,relative viability,[7]; first compound 0.5 µM,0.421
same,relative viability,[7]; first compound 1.581 µM,0.458
same,relative viability,[7]; first compound 5 µM,0.351
same,relative viability,[8]; first compound 0.05 µM,0.496
same,relative viability,[8]; first compound 0.1581 µM,0.585
same,relative viability,[8]; first compound 0.5 µM,0.671
same,relative viability,[8]; first compound 1.581 µM,0.448
same,relative viability,[8]; first compound 5 µM,0.197
same,relative viability,[9]; first compound 0.05 µM,0.656
same,relative viability,[9]; first compound 0.1581 µM,0.776
same,relative viability,[9]; first compound 0.5 µM,0.726
same,relative viability,[9]; first compound 1.581 µM,0.428
same,relative viability,[9]; first compound 5 µM,0.228
same,relative viability,[10]; first compound 0.05 µM,0.607
same,relative viability,[10]; first compound 0.1581 µM,0.618
same,relative viability,[10]; first compound 0.5 µM,0.572
same,relative viability,[10]; first compound 1.581 µM,0.547
same,relative viability,[10]; first compound 5 µM,0.465
same,relative viability,[11]; first compound 0.05 µM,0.449
same,relative viability,[11]; first compound 0.1581 µM,0.468
same,relative viability,[11]; first compound 0.5 µM,0.493
same,relative viability,[11]; first compound 1.581 µM,0.295
same,relative viability,[11]; first compound 5 µM,0.305
same,relative viability,[12]; first compound 0.05 µM,0.383
same,relative viability,[12]; first compound 0.1581 µM,0.409
same,relative viability,[12]; first compound 0.5 µM,0.418
same,relative viability,[12]; first compound 1.581 µM,0.42
same,relative viability,[12]; first compound 5 µM,0.595
same,relative viability,[13]; first compound 0.05 µM,0.47
same,relative viability,[13]; first compound 0.1581 µM,0.362
same,relative viability,[13]; first compound 0.5 µM,0.648
same,relative viability,[13]; first compound 1.581 µM,0.369
same,relative viability,[13]; first compound 5 µM,0.181
same,relative viability,[14]; first compound 0.05 µM,0.897
same,relative viability,[14]; first compound 0.1581 µM,0.97
same,relative viability,[14]; first compound 0.5 µM,0.758
same,relative viability,[14]; first compound 1.581 µM,0.8
same,relative viability,[14]; first compound 5 µM,0.616

# From the supplement of paper PMC10307832
